Values of other authors in US12296348B2, “Electrostatic precipitator” (TECHNISCHE UNIVERSITÄT DORTMUND, priority 2019, dated 2025).

Conditions: solubility limited in terms of its bioavailability

COc1ccc2cc([C@H](C)C(=O)O)ccc2c1 [unprocessed naproxen, naproxen]
BCS classification: Class II
